Reference: US11434246B2, “EP4 antagonists” (Eisai R&D Management Co., Ltd., priority 2015, dated 2022)

Columns and labels:
4T1 cells = assay: In vivo anti-tumor pharmacology, mouse breast 4T1 syngeneic tumor model
Procedure: In vivo Anti-tumor Pharmacology: 4T1 cells were maintained in RPMI 1640 medium supplemented with 10% FBS at 37° C. and 5% CO2 atmosphere. Cell detachment was obtained using standard trypsinization methods, quantification of cell numbers and viability information using the NC-200 automated cell counter. Compound 1 was thoroughly suspended in 0.5% methyl cellulose (MC) by sonication at 4° C. for 15 min before oral administration (p.o.) to animals. BALB/c mice were injected subcutaneously (s.c.) with live 1×10^5 4 T1 cells. Mice developed tumors of approximately 36 mm^3 in 5 days. 4T1 tumor-bearing mice were randomized and mapped into 5 groups of 10 mice each: group A received vehicle (0.5% MC); group B received 0.1 mg/kg of compound 1; group C received 1 mg/kg of compound 1, group D received 25 mg/kg of compound 1; and group E received 150 mg/kg of compound 1. All treatments were give p.o. daily for 21 consecutive days. Tumor volumes and body weights were measured twice weekly. Study was terminated 27 days after tumor cell injection. Tumor volumes were expressed as mean±SEM. Tumor volume differences among treated mouse groups on day 27 were analyzed by the one-way ANOVA followed by Tukey's test. P≤0.05 values were considered significant.

EP4 [1] = biological target: T1, EP4 (Homo sapiens, UniProt P35408); assay: EP4 Antagonism by CRE-PLAP Reporter Assay (SE302 cells, PGE2-stimulated); type: cell-based; parameters: HEK293 cells express endogenous EP4; endogenous in cells; host or cells: SE302 (HEK293 clone with CRE-PLAP reporter); conditions: SE302 (HEK293) cells, 3 ng/mL PGE2, overnight; single or multiple assay average values
T1 sequence (P35408 whole entry): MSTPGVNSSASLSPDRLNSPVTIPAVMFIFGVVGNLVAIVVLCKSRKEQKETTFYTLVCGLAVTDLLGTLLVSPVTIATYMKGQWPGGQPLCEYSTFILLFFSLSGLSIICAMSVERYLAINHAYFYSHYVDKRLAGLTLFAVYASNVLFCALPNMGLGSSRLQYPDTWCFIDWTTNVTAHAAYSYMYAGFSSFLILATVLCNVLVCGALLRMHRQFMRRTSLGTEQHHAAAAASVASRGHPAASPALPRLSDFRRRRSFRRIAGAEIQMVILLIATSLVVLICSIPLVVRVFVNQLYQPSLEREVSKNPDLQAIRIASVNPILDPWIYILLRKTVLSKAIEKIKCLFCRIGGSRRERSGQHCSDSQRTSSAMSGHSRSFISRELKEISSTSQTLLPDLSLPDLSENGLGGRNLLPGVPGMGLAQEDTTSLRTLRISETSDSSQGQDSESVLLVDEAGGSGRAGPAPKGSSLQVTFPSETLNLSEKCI
How it was run: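 HEK293-derived SE302 cells with endogenous EP4 and CRE-driven secreted PLAP, in serum-free medium with 0.1% BSA, stimulated overnight with 3 ng/mL PGE2 plus compound. Supernatant PLAP read by luminescence (pH 11 carbonate buffer, 2 h). IC50 from % of control, normalized to DMSO with and without PGE2.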

mouse EP4 receptor = biological target: T2, mouse EP4 receptor (Mus musculus, UniProt P32240); assay: Competitive Radioligand EP4 Receptor Binding Assay ([3H]-PGE2, U2OS membranes); conditions: mouse EP4-overexpressing cell membrane fraction, 12 nM [3H]-PGE2; read-out: Ki of inhibition of radiolabelled PGE2 binding, mouse EP4
T2 construct: purchased Genscript; host or cells: U2OS clone
T2 sequence (P32240 whole entry): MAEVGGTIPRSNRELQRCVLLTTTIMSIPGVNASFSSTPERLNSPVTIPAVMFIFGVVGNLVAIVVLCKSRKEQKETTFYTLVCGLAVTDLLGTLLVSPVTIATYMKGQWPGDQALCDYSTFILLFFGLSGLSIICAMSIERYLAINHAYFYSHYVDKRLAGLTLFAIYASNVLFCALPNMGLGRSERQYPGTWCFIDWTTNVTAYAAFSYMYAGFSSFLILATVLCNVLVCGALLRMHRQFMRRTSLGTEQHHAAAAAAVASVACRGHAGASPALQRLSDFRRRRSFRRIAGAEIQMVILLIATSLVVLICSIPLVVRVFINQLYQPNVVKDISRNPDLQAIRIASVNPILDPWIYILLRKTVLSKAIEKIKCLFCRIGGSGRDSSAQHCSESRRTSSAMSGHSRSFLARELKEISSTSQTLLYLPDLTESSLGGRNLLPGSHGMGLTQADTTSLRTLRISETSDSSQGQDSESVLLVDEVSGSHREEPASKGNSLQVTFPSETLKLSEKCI
Procedure: (§1) Competitive Radioligand EP4 Receptor Binding Assay: The assay was performed using ChemiScreen recombinant human EP4 receptor membrane preparations from Millipore using Chem-1 cells and mouse EP4 receptor membrane preparations from Genscript using U2OS clone, according to manufacturer's instructions. For human EP4 binding, 10 μg Chem-1 cell membranes overexpressing human EP4 cDNA were mixed with 12 nM [^3H]-PGE2 and 5 μmol/L unlabeled PGE2 or 0.1% DMSO in the presence or absence of various concentrations of testing compounds in binding buffer (50 mM HEPES, pH 7.4, 5 mM MgCl2, 1 mM CaCl2, 0.2% BSA) in a nonbinding 96-well plate, and incubated for 2 h at room temperature. For mouse EP4 binding, 60 μg of U2OS membranes were used in the same condition. Prior to filtration, a GF/C 96-well filter plate was coated with 0.33% polyethyleneimine for 30 min, then washed with 50 mM HEPES, pH 7.4, 0.5% BSA. Binding reactions were transferred to the filter plate, and washed 3 times with assay Wash Buffer (50 mM HEPES, pH7.4, 500 mM NaCl, 0.1% BSA). The plate was dried and radioactivity counted. The data were processed using PRISM software, and IC50 and Ki values were calculated using the same software.

EP4 [2] = biological target: T1, EP4; assay: Competitive Radioligand EP4 Receptor Binding Assay ([3H]-PGE2, Chem-1 cell membranes); parameters: purchased Millipore; host or cells: Chem-1 cells; conditions: human EP4-overexpressing cell membrane fraction, 12 nM [3H]-PGE2; read-out: Ki of inhibition of radiolabelled PGE2 binding, human EP4
Procedure: as §1

Row | IC50 (EP4 [1]) | SMILES | also measured
1 | 73 nM | C[C@H](NC(=O)c1c(C(F)(F)F)nn2c1N(Cc1cccc(C(F)(F)F)c1)CC2)c1ccc(C(=O)NS(=O)(=O)C2CC2)cc1 [Compound 56, (S)—N-(1-(4-((cyclopropylsulfonyl)carbamoyl)phenyl)ethyl)-6-(trifluoromethyl)-1-(3-(trifluoromethyl)benzyl)-2,3-dihydro-1H-imidazo[1,2-b]pyrazole-7-carboxamide] | 
2 | 0.182 nM | C[C@H](NC(=O)c1c(C(F)(F)F)nn2c1N(Cc1cc(O)cc(C(F)(F)F)c1)CC2)c1ccc(C(=O)O)cc1 [Compound 77, (S)-4-(1-(1-(3-hydroxy-5-(trifluoromethyl)benzyl)-6-(trifluoromethyl)-2,3-dihydro-1H-imidazo[1,2-b]pyrazole-7-carboxamido)ethyl)benzoic Acid] | 
3 | 3.6 nM | Cc1ccccc1CN1CCn2nc(C(F)(F)F)c(C(=O)N[C@@H](C)c3ccc(C(=O)O)cc3)c21 [Compound 19, (S)-4-(1-(1-(2-methylbenzyl)-6-(trifluoromethyl)-2,3-dihydro-1H-imidazo[1,2-b]pyrazole-7-carboxamido)ethyl)benzoic Acid] | 
4 | 310 nM | C[C@H](NC(=O)c1c(C(F)(F)F)nn2c1N(Cc1ccc(C(F)(F)F)cc1)CC2)c1ccc(C2CC2)cc1 [Compound 57, (S)—N-(1-(4-cyclopropylphenyl)ethyl)-6-(trifluoromethyl)-1-(4-(trifluoromethyl)benzyl)-2,3-dihydro-1H-imidazo[1,2-b]pyrazole-7-carboxamide] | 
5 | 28 nM | C[C@H](NC(=O)c1c(C(F)(F)F)nn2c1N(Cc1cccc(COCCF)c1)CC2)c1ccc(C(=O)O)cc1 [Compound 74, (S)-4-(1-(1-(3-((2-fluoroethoxy)methyl)benzyl)-6-(trifluoromethyl)-2,3-dihydro-1H-imidazo[1,2-b]pyrazole-7-carboxamido)ethyl)benzoic Acid] | 
6 | 1.35 nM | O=C(O)c1ccc(C2(NC(=O)c3c(C(F)(F)F)nn4c3N(Cc3ccc(Cl)cc3)CC4)CC2)cc1 [Compound 30, 4-(1-(1-(4-chlorobenzyl)-6-(trifluoromethyl)-2,3-dihydro-1H-imidazo[1,2-b]pyrazole-7-carboxamido)cyclopropyl)benzoic Acid] | 
7 | 4.12 nM | C[C@H](NC(=O)c1c(C(F)(F)F)nn2c1[N+]([O-])(Cc1cccc(I)c1)CC2)c1ccc(C(=O)O)cc1 (stereo partly drawn) [Compound 76, 7-(((S)-1-(4-carboxyphenyl)ethyl)carbamoyl)-1-(3-iodobenzyl)-6-(trifluoromethyl)-2,3-dihydro-1H-imidazo[1,2-b]pyrazole 1-oxide] | 
8 | 3.9 nM | COC(=O)c1ccc([C@H](C)NC(=O)c2c(C(F)(F)F)nn3c2N(Cc2ccc(C(F)(F)F)cc2)CC3)cc1 [Compound 2, Methyl (S)-4-(1-(6-(trifluoromethyl)-1-(4-(trifluoromethyl)benzyl)-2,3-dihydro-1H-imidazo[1,2-b]pyrazole-7-carboxamido)ethyl)benzoate] | 
9 | 12.5 nM | C[C@H](NC(=O)c1c(C(F)(F)F)nn2c1N(Cc1ccc(OC(F)(F)F)cc1)CC2)c1ccc(C(=O)O)cc1 [Compound 10, (S)-4-(1-(1-(4-(trifluoromethoxy)benzyl)-6-(trifluoromethyl)-2,3-dihydro-1H-imidazo[1,2-b]pyrazole-7-carboxamido)ethyl)benzoic Acid] | 
10 | 8.96 nM | C[C@H](NC(=O)c1c(C(F)(F)CO)nn2c1N(Cc1cccc(C(F)(F)F)c1)CC2)c1ccc(C(=O)O)cc1 [Compound 100, (S)-4-(1-(6-(1,1-Difluoro-2-hydroxyethyl)-1-(3-(trifluoromethyl)benzyl)-2,3-dihydro-1H-imidazo[1,2-b]pyrazole-7-carboxamido)ethyl)benzoic Acid] | 

Row | SMILES | IC50 (EP4 [1]) | also measured
11 | C[C@H](NC(=O)c1c(C(F)(F)F)nn2c1N(Cc1cccc(C(F)(F)F)c1)CC2)c1ccc(C(=O)O)cc1 [Compound 1, (S)-4-(1-(6-(trifluoromethyl)-1-(3-(trifluoromethyl)benzyl)-2,3-dihydro-1H-imidazo[1,2-b]pyrazole-7-carboxamido)ethyl)benzoic Acid] | 0.34 nM | gross toxicity judged from animal body weight and overall animal behavior (4T1 cells; 0.1-150 mg/kg p.o. daily for 21 days, BALB/c mice): None of the doses tested showed gross toxicity; tumor growth inhibition (4T1 cells; 0.1 and 1.0 mg/kg p.o. daily for 21 days, day 27): some inhibition was observed, but without statistical significance; tumor growth inhibition (4T1 cells; 25 and 150 mg/kg p.o. daily for 21 days, day 27): Statistically significant inhibition of tumor growth; tumor growth inhibition (4T1 cells; 25 and 150 mg/kg p.o. daily for 21 days, day 27, listed as compound 1): significant and comparable anti-tumor activity; tumor growth inhibition (4T1 cells; BALB/c mice, 4T1 s.c. tumors, p.o. daily for 21 days, range 0.1 mg/kg-150 mg/kg): inhibited the tumor growth in a dose-dependent manner; Ki (mouse EP4 receptor): 26.3 nM; Ki (EP4 [2]): 4.2 nM
